Experimental data taken from patent publication US10226440B2, “Oral compositions comprising creatine” (Eddie O'Gorman Ltd, priority 2011, dated 2019).

Assay: HPLC creatine levels after storage of other aqueous gels, jellies, suspensions and water controls
Format: physicochemical
Conditions: 10 g in 50 ml water, stored at 4 deg Celsius and room temperature, after one month
Protocol: A spectrophotometric scan of the colloidal creatine (10 mg ml^−1 dissolved in HPLC mobile phase), the CARG (1:15 dilution in HPLC mobile phase) and the HPLC mobile phase was performed to determine the appropriate detection wavelength for the HPLC assay. The scan was performed over a wavelength range from 190-950 nm. It was decided to use 220 nm as the detection wavelength.
Due to the viscous nature of the CARG it had to be diluted by a factor of 10 at the very least before samples could be injected onto the HPLC. In general a dilution factor of 1/15 was used in the analysis of the samples. The variation in peak area over the course of the experiment was not significant and gave a standard deviation of 1351126.18 (approximately equivalent to 0.13 mg ml^−1 creatine), see Tables 1 and 2.
Two aqueous gels, (A) and (B), were created containing colloidal creatine were made by mixing with water and heating to 55 deg Celsius:
This was stored in a 100 ml plastic dispensing container at room temperature. Creatine levels were measured after 3 months using the above HPLC method and found to have decreased by 22% at 4 deg Celsius and only 5% at room temperature.
Another oral product was made using colloidal creatine in standard commercially available jelly beans reconstituted in water. The concentrations of colloidal creatine per ml of reconstituted jelly bean were 0, 20, 50, 100 and 200 mg/ml. […]

- loss of creatine content: 90%
Structure (SMILES): CN(CC(=O)O)C(=N)N [creatine, creatine (2-(methylguanidino)ethanoic acid)]
